Results taken from patent publication US20130289070A1, “Use of Levocabastine for Modulating Generation of Pro-Inflammatory Cytokines” (Bausch & Lomb Incorporated, priority 2007, published 2013).

Test system: EoL-1 (human eosinophilic leukaemia cell line) cells
Assay: TNF-α-induced cytokine release, non-differentiated EoL-1 cells (NO PMA) (Luminex)
Type: cell-based
Set-up: key to Fractalkine (NO PMA), p of decrement / IL-1α (NO PMA), p of decrement / IL-1β (NO PMA), p of decrement / IL-1ra (NO PMA), p of decrement / IL-5 (NO PMA), p of decrement / IL-7 (NO PMA), p of decrement / IL-8 (NO PMA), p of decrement / IP-10 (NO PMA), p of decrement / MCP-1 (NO PMA), p of decrement / MIP-1β (NO PMA), p of decrement / VEGF (NO PMA), p of decrement: ns = non significant
Protocol: EoL-1 (human eosinophilic leukaemia cell line) cells (Saito et al., 1985; Mayumi, 1992) were maintained in RPMI-1640 medium with L-glutamine supplemented with 10% (v/v) FBS at 37° C. in a humidified atmosphere with 5% CO2. Where indicated, 24 h before the experiment 25 ng/mL PMA ((phorbol 12-myristate 13-acetate, purchased from Sigma Aldrich) was added to the medium to induce eosinophil granulation and differentiation (Ohtsu et al., 1993; Zimmermann et al., 2000).
Half-million cells were aliquoted per point in a 24 well plate; each experiment was performed in triplicate and carried out in parallel with eosinophils differentiated and non differentiated with PMA (25 ng/mL, 24 h). Cells were suspended in low serum medium (RPMI-1640, 0.1% (v/v) FBS). TNF-α was used to induce cytokine secretion as previously described by Steube et al. (2000), and the net release was obtained by comparison to the basal (non-TNF-α treated). In the first experiment we evaluated the concentration and time relation between TNF-α stimulation and cytokine release. Therefore, 5, 10, and 25 ng/mL of TNF-α was administered to the cells at 0, ½, 1, 2, 3, 6, 12 and 24 h (data not shown). An aliquot of 150 μL of supernate was collected for cytokines' analysis. […] Differentiated and non-differentiated EoL-1 cells were exposed from 0.1 to 2.3 mM levocabastine ([…]Levocabastine 0.05% solution eye drops containing cyclodextrins, without benzalkonium chloride), and aliquots of the supernates were collected after 12 and 24 h. The content of cytokines at time zero was estimated by treating the cells with 400 nM calcimycin (A-23187), which is a cytolytic agent that frees all the mediators from the cytoplasmic compartment. In addition, for each experiment we tested the effect of the vehicle, which was added to the wells in a concentration equal to the maximum amount used for drug dilution.
Samples (supernates 12 and 24 h) in triplicate were analyzed using Luminex 200™ (Luminex, Austin, Tex.) and Beadview software v1.0 (Upstate Cell Signaling Solutions, Temecula, Calif.).
All data are presented as mean±SEM for the indicated number of experiments. Statistical significance was determined by Newman-Keuls test after ANOVA using GraphPad Prism (version 3.0; GraphPad Software Inc., San Diego, Calif., USA). P-values<0.05 were considered to be significant.

[1] = 24 h, Levocabastine 2 mM vs TNF-α
[2] = 24 h, TNF-α 5 ng + Levocabastine 2 mM vs TNF-α
[3] = 24 h, TNF-α 10 ng + Levocabastine 2 mM vs TNF-α
[4] = 24 h, TNF-α 20 ng + Levocabastine 2 mM vs TNF-α
[5] = 24 h, TNF-α 5, 10, 20 ng + Levocabastine 2 mM vs TNF-α
[6] = 24 h, VCAM-1 + Levocabastine 2 mM vs VCAM-1
[7] = non-differentiated EoL-1 cells, in the presence of VCAM-1 or fibronectin

## C[C@@H]1CN([C@H]2CC[C@](C#N)(c3ccc(F)cc3)CC2)CC[C@]1(C(=O)O)c1ccccc1 [Levocabastine, levocabastine]
[1]
  IL-8 (NO PMA), p of decrement: ns
  IL-10 (NO PMA), p of decrement: ns
  IL-12p40 (NO PMA), p of decrement: P < 0.01
  IP-10 (NO PMA), p of decrement: ns
  MCP-1 (NO PMA), p of decrement: Increase
  MIP-1α (NO PMA), p of decrement: Increase
  MIP-1β (NO PMA), p of decrement: ns
  RANTES (NO PMA), p of decrement: Increase
  TGF-α (NO PMA), p of decrement: ns
  VEGF (NO PMA), p of decrement: P < 0.001
[2]
  GM-CSF (NO PMA), p of decrement: ns
  IL-1ra (NO PMA), p of decrement: P < 0.01
  IL-1β (NO PMA), p of decrement: ns
  IL-5 (NO PMA), p of decrement: ns
  IL-6 (NO PMA), p of decrement: ns
  IL-7 (NO PMA), p of decrement: ns
  IL-8 (NO PMA), p of decrement: ns
  IL-10 (NO PMA), p of decrement: ns
  IL-12p40 (NO PMA), p of decrement: P < 0.001
  MCP-1 (NO PMA), p of decrement: ns
  TGF-α (NO PMA), p of decrement: P < 0.05
  VEGF (NO PMA), p of decrement: P < 0.001
[3]
  GM-CSF (NO PMA), p of decrement: ns
  IL-1ra (NO PMA), p of decrement: P < 0.05
  IL-1β (NO PMA), p of decrement: ns
  IL-5 (NO PMA), p of decrement: ns
  IL-6 (NO PMA), p of decrement: ns
  IL-7 (NO PMA), p of decrement: ns
  IL-8 (NO PMA), p of decrement: ns
  IL-10 (NO PMA), p of decrement: ns
  IL-12p40 (NO PMA), p of decrement: P < 0.001
  MCP-1 (NO PMA), p of decrement: ns
  TGF-α (NO PMA), p of decrement: ns
  VEGF (NO PMA), p of decrement: P < 0.001
[4]
  GM-CSF (NO PMA), p of decrement: ns
  IL-1ra (NO PMA), p of decrement: P < 0.01
  IL-1β (NO PMA), p of decrement: ns
  IL-5 (NO PMA), p of decrement: ns
  IL-6 (NO PMA), p of decrement: ns
  IL-7 (NO PMA), p of decrement: ns
  IL-8 (NO PMA), p of decrement: ns
  IL-10 (NO PMA), p of decrement: ns
  IL-12p40 (NO PMA), p of decrement: P < 0.001
  MCP-1 (NO PMA), p of decrement: ns
  TGF-α (NO PMA), p of decrement: P < 0.05
  VEGF (NO PMA), p of decrement: P < 0.001
[5]
  Fractalkine (NO PMA), p of decrement: increase of cytokine secretion
  G-CSF (NO PMA), p of decrement: increase of cytokine secretion
  IL-1α (NO PMA), p of decrement: increase of cytokine secretion
  IP-10 (NO PMA), p of decrement: increase of cytokine secretion
  MIP-1α (NO PMA), p of decrement: increase of cytokine secretion
  MP-1β (NO PMA), p of decrement: increase of cytokine secretion
  RANTES (NO PMA), p of decrement: increase of cytokine secretion
24 h, TNF-α vs Lev 0.1 mM
  Fractalkine (NO PMA), p of decrement: ns
  IL-1ra (NO PMA), p of decrement: ns
  IL-1α (NO PMA), p of decrement: ns
  IL-1β (NO PMA), p of decrement: ns
  IL-5 (NO PMA), p of decrement: ns
  IL-7 (NO PMA), p of decrement: ns
  IL-8 (NO PMA), p of decrement: ns
  IP-10 (NO PMA), p of decrement: p < 0.05
  MCP-1 (NO PMA), p of decrement: ns
  MIP-1β (NO PMA), p of decrement: ns
  VEGF (NO PMA), p of decrement: ns
24 h, TNF-α vs Lev 0.5 mM
  Fractalkine (NO PMA), p of decrement: ns
  IL-1ra (NO PMA), p of decrement: ns
  IL-1α (NO PMA), p of decrement: ns
  IL-1β (NO PMA), p of decrement: ns
  IL-5 (NO PMA), p of decrement: ns
  IL-7 (NO PMA), p of decrement: ns
  IL-8 (NO PMA), p of decrement: ns
  IP-10 (NO PMA), p of decrement: p < 0.05
  MCP-1 (NO PMA), p of decrement: ns
  MIP-1β (NO PMA), p of decrement: ns
  VEGF (NO PMA), p of decrement: ns
24 h, TNF-α vs Lev 1.0 mM
  Fractalkine (NO PMA), p of decrement: ns
  IL-1ra (NO PMA), p of decrement: ns
  IL-1α (NO PMA), p of decrement: ns
  IL-1β (NO PMA), p of decrement: ns
  IL-5 (NO PMA), p of decrement: ns
  IL-7 (NO PMA), p of decrement: ns
  IL-8 (NO PMA), p of decrement: ns
  IP-10 (NO PMA), p of decrement: ns
  MCP-1 (NO PMA), p of decrement: ns
  MIP-1β (NO PMA), p of decrement: ns
  VEGF (NO PMA), p of decrement: ns
24 h, TNF-α vs Lev 2.3 mM
  Fractalkine (NO PMA), p of decrement: ns
  IL-1ra (NO PMA), p of decrement: ns
  IL-1α (NO PMA), p of decrement: ns
  IL-1β (NO PMA), p of decrement: ns
  IL-5 (NO PMA), p of decrement: ns
  IL-7 (NO PMA), p of decrement: ns
  IL-8 (NO PMA), p of decrement: ns
  IP-10 (NO PMA), p of decrement: ns
  MCP-1 (NO PMA), p of decrement: ns
  MIP-1β (NO PMA), p of decrement: ns
  VEGF (NO PMA), p of decrement: p < 0.01
24 h, TNF-α vs Lev 0.1-2.3 mM
  MIP-1α (NO PMA), p of increase: concentration dependent way p < 0.001
  RANTES (NO PMA), p of increase: concentration dependent way p < 0.001
[6]
  Fractalkine (NO PMA), p of decrement: ns
  G-CSF (NO PMA), p of decrement: ns
  GM-CSF (NO PMA), p of decrement: ns
  IL-1ra (NO PMA), p of decrement: P < 0.01
  IL-1α (NO PMA), p of decrement: ns
  IL-1β (NO PMA), p of decrement: ns
  IL-5 (NO PMA), p of decrement: ns
  IL-6 (NO PMA), p of decrement: P < 0.001
  IL-7 (NO PMA), p of decrement: ns
  IL-8 (NO PMA), p of decrement: P < 0.001
  IL-10 (NO PMA), p of decrement: ns
  IL-12p40 (NO PMA), p of decrement: ns
  IP-10 (NO PMA), p of decrement: ns
  MCP-1 (NO PMA), p of decrement: ns
  MIP-1α (NO PMA), p of decrement: Increase
  MIP-1β (NO PMA), p of decrement: ns
  RANTES (NO PMA), p of decrement: Increase
  TGF-α (NO PMA), p of decrement: ns
  VEGF (NO PMA), p of decrement: P < 0.001
Naïve EoL-1 cells challenged with TNF-α, levocabastine with cyclodextrin pre-treatment
  release of VEGF (FIG. 4 Panel B): reduced release
[7]
  IL-6 release (FIG. 13): inhibited
  release, cytokine not named (FIG. 12): inhibited
